Data on 3 compounds can be found in US7977328B2, “Heteroaryl benzamide derivatives for use as GLK activators in the treatment of diabetes” (AstraZeneca AB, priority 2005, dated 2011).

Series [1] has as its target T1, recombinant human pancreatic GLK (Homo sapiens, UniProt P35557).
T1 sequence (P35557 1-465): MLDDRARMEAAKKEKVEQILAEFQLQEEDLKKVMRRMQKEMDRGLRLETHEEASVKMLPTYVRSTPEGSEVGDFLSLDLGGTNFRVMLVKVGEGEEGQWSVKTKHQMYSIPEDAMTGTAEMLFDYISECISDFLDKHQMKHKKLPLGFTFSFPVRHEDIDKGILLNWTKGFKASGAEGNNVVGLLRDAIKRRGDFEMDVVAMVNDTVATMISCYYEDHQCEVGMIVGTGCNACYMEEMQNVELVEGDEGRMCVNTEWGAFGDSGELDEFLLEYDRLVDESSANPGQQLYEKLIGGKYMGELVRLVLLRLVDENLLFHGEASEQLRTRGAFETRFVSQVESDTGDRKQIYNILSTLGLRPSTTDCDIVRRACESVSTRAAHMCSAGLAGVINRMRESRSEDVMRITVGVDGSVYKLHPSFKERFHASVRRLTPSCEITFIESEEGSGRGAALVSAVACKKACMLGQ
The series can be described thus: biochemical.

The next series relates to Zucker obese fa/fa rats. Nature of the series: Oral Glucose Tolerance Test (OGTT). It is filed as in vivo, rat. Particulars: 10 mg/kg, given orally 120 minutes before glucose 2 g/kg; Zucker obese fa/fa rats on high fat diet. The method, then: Oral glucose tolerance tests were done on conscious Zucker obese fa/fa rats (age 12-13 weeks or older) fed a high fat diet (45% kcal fat) for at least two weeks prior to experimentation. The animals were fasted for 2 hours before use for experiments. A test compound or a vehicle was given orally 120 minutes before oral administration of a glucose solution at a dose of 2 g/kg body weight. Blood glucose levels were measured using a Accucheck glucometer from tail bled samples taken at different time points before and after administration of glucose (time course of […]). A time curve of the blood glucose levels was generated and the area-under-the-curve (AUC) for 120 minutes was calculated (the time of glucose administration being time zero). Percent reduction in glucose excursion was determined using the AUC in the vehicle-control group as zero percent reduction.

The compound `COC[C@H](C)Oc1cc(Oc2ccc(C(=O)N3CCC3)nc2)cc(C(=O)Nc2ccn(C)n2)c1` [Example 3, 3-{[6-(Azetidin-1-ylcarbonyl)pyridin-3-yl]oxy}-5-{[(1S)-1-methyl-2-(methyloxy)ethyl]oxy}-N-(1-methyl-1H-pyrazol-3-yl)benzamide] returned a melting point of 132.7 °C. Moreover, the EC50 in series [1] is 31 nM. Also, the “OGTT activity (percent reduction in glucose excursion, AUC)” value with Zucker obese fa/fa rats is given as 54%.

Turning to `Cc1cnc(NC(=O)c2cc(Oc3ccc(C(=O)N4CCC4)nc3)cc(OC(C)C)c2)cn1` [Example 37, 3-{[6-(Azetidin-1-ylcarbonyl)pyridin-3-yl]oxy}-5-[(1-methylethyl)oxy]-N-(5-methylpyrazin-2-yl)benzamide], the melting point is 125.7 °C.

Compound `Cc1cnc(NC(=O)c2cc(Oc3cnc(C(=O)N4CCC4)cn3)cc(O[C@@H](C)CO)c2)cn1` [Example 59, 3-{[5-(Azetidin-1-ylcarbonyl)pyrazin-2-yl]oxy}-5-{[(1S)-2-hydroxy-1-methylethyl]oxy}-N-(5-methylpyrazin-2-yl)benzamide] showed a melting point of 100.6 °C.
